The values below come from patent US20050208058A1, “Compositions and methods for modulating cell division” (priority 2003, published 2005).

d = 2'-deoxy (DNA)

Common to all, as to type: cell-based, human
The subject of series [1] is RPE cells. Briefly: Ki-67 staining of siRNA-treated cells. The conditions noted are these: vs silamin; FIG. 2B. The protocol:
(§1) To further study the effects of silencing centrosomal genes, the following cell cycle experiments were performed using RPE cells. In immunofluorescence experiments, cells were delivered by OLIGOFECTAMINE in a media solution containing between 1-100 nanomolar concentration of siRNAs. After 4 hours of incubation with lipofectamine, cells were washed, and cell cycle progression was assayed by (i) treating cells with 5-Bromo-2′-deoxyuridine (BrDU from Sigma, St Louis, Mo.) for 24 hours and staining for BrDU or (ii) staining cells with antibody to Ki-67 (BD Biosciences) according to manufacturer's instructions. BrDU treatment and staining were performed as follows: after 50-70 hours incubation with siRNA, BrDU was added to cells at a final concentration of 5 μg/ml. Cells were fixed in −20° C. methanol and then treated with 2N HCL at 22° C. for 30 minutes, incubated with 1:500 mouse anti-BrdU antibody (Becton Dickinson, Palo Alto, Calif.), and labeled with 1:1,000 goat FITC-mouse antibody (Molecular Probes, Inc.). Cells were also treated with 4′,6-diamidino-2-phenylindole (DAPI) (Molecular Probes) according to the manufacturer's instructions. Cells were prepared, imaged, and the resulting images were deconvolved as described in Example 1.
FIG. 2B confirms the results in FIG. 2A using a different immunofluorescence marker for cell cycle progression. […]

Series [2] has as its system RPE cells. Description: FACS of cells treated in tandem with two siRNAs (p53 dependence). The conditions noted are these: tandem treatment silamin then siGCP2; FIG. 6A. The protocol: For flow cytometry (i.e., fluorescence-activated cell sorter or FACS) experiments, siRNAs were delivered to cells as described above, and were incubated for 50-70 hours. To synchronize cells, nocodazole was added to the cells to a concentration of 5 μg/mL for 12 hours. Cells were stained with propidium iodide and analyzed by flow cytometry (FACSCAN; Becton Dickinson) using FLOJO® software (Tree Star, Inc., Ashland, Oreg.).
(§2) A number of experiments were conducted to determine if p53 is required for the cell cycle arrest phenotype described herein. FACS analysis of tandem siRNA-treated cells was performed as described in Example 2. BrDU and DAPI imaging was performed as described in Example 2. Intracellular p53 was visualized using anti-p53 antibody that is specific for activated p53 (i.e., p53 phosphorylated at Serine 33) (“α-Pser33-p53” provided by Yoichi Taya and described in Kishis et al., J. Biol. Chem., 276:39115-3922, 2001)
In FIG. 6A each line tracing represents FACS data from cells treated in tandem with the siRNAs directed to the gene products indicated above the line. Cells were first treated with siRNA directed to the gene product to the left of the slash. Up to 24 hours later, siRNA directed to the gene product to the right of the slash was added. […] 12 hours before collecting the cells, nocodazole was added to the cells analyzed in the bottom three line tracings. […]

The test system of series [3] is RPE cells. Description: BrDU staining of cells treated in tandem with two siRNAs (p53 dependence). The conditions noted are these: tandem treatment silaminin then indicated siRNA, vs silamin/silamin; FIG. 6B. The protocol:
as §1, §2

The next series concerns p53. Description: Immunofluorescence of p53 and phosphorylated p53 (α-Pser33-p53) localization. The conditions noted are these: vs silamin. The protocol:
as §2
Translocation of p53 into the nucleus caused by depletion of centrosomal proteins was also observed by immunofluorescence. […] Relatively little p53 translocated from the cytoplasm to the nucleus of silamin.
An antibody specifically reactive for phosphorylated p53 (α-Pser33-p53) was used to determine the phosphorylated state of p53 that accumulates in the nucleus as a result of GCP2 gene product depletion. In FIG. 6F, the left panels depict cells treated with silamin; the right panels depict cells treated with siGCP2. […] The two upper panels show a merged view of (i) the bottom panels and (ii) the same cells stained with DAPI. […] This nuclear localization is confirmed by the overlapping DAPI staining.

Take “UCUCGUACUCCAGAAGACU (siRNA; RNA, 3' dTdT, backbone not given here) [siGCP2, siRNA directed to GCP2]”: the “cells expressing Ki67” value with RPE cells [1] is “Very few cells”. Further, the “nocodazole shift from G1 peak to G2/M peak” value in the series with RPE cells [2] is reported as “blocked”. In the series on RPE cells [3], the “cells incorporating BrDU” value was “substantially fewer”. Also, in the series on p53 (FIG. 6E), the “p53 accumulation in nucleus (immunofluorescence)” value was “substantially more p53 accumulated in nucleus”. In the series on p53 (FIG. 6F), the “localization of activated p53 (α-Pser33-p53 staining)” value is “activated p53 was detected only in the nucleus”.
